Test results reported in patent US20110282056A1, “PROTEIN KINASE INHIBITORS AND USE THEREOF” (priority 2008, published 2011).

What was measured:
Assay type in all cases: biochemical
VEGFR3 = target: T1, VEGFR3 (Homo sapiens, UniProt P35916); assay: VEGFR3 enzyme activity assay (Caliper LC3000 mobility shift); settings: 400 uM ATP (Km), 0.4 nM VEGFR3, 90 minutes at RT
T1 construct: purchased Millpore Corp. (Millipore) 14-681
Procedure: (§1) Enzyme activity for VEGFR3, VEGFR2 and Flt3 were measured on the Caliper Life Sciences LC3000 (Hopkinton, Mass.). The system utilizes the principle of electroosmotic flow to separate and quantify the amount of phosphorylated-Fluorescein-labelled-peptide (product) from unphosphorylated-Fluorescein-labelled peptide (substrate). The amount of product and substrate are determined by measuring the peak heights from the electropherogram. The enzyme activity is then quantified by dividing the amount of product by the sum of the product and substrate. The inhibitory activity of a sample is measured by comparing the enzyme activity in the presence of sample versus the enzyme activity in the presence of dimethylsufoxide (DMSO). Specific assay conditions for each enzyme are listed below:
(§2) VEGFR3 assay: The peptide substrate at 1 uM (FITC-KKKKEEIYFFF-CONH2; synthesized at Tufts University, Boston, Mass.) was incubated with 400 uM of ATP, corresponding to the Michaelis-Menten (Km) constant of the enzyme/substrate reaction, and 0.4 nM of VEGFR3 (Millpore Corp., Cat. No. 14-681) for 90 minutes at RT. After 90 minutes, the reaction was stopped by the addition of 10 mM EDTA. The substrate and product were then separated on the LC3000.

Flt3 = target: T2, Flt3 (Homo sapiens, UniProt P36888); assay: Flt3 enzyme activity assay (Caliper LC3000 mobility shift); settings: 350 uM ATP (Km), 3 nM Flt3, 90 minutes at RT
T2 construct: purchased BPS Bioscience; San Diego, Calif; 40225
T2 sequence (P36888 27-993): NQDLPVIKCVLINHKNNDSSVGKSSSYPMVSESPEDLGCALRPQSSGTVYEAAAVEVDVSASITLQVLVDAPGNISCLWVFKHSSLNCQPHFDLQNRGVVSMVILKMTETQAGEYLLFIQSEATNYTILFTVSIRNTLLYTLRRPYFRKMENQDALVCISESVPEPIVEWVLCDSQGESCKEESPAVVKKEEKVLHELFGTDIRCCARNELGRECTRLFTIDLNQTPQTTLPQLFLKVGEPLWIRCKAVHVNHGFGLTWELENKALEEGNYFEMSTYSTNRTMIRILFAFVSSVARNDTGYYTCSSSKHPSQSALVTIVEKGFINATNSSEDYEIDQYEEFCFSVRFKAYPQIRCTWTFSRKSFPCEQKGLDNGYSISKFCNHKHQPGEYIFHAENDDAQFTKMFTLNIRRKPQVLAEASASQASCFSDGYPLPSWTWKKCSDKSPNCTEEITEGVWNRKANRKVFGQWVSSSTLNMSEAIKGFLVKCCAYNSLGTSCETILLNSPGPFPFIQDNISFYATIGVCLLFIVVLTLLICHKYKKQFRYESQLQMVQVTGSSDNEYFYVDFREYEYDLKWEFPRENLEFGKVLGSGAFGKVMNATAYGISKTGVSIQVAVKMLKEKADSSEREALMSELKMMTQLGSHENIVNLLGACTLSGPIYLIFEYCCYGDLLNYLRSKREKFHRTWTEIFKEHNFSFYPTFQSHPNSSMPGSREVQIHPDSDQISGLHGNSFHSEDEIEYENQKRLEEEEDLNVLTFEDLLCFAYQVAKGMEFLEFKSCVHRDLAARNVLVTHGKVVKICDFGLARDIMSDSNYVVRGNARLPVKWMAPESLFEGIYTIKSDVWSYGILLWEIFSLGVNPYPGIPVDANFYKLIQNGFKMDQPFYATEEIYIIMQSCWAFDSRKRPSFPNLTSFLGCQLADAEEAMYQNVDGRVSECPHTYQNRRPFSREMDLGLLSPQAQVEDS
Procedure: as §1
as §2, with “Flt3” for “VEGFR3”, “(FITC-AHA-UEAIYAAPFAKKK-CONH2;” for “(FITC-KKKKEEIYFFF-CONH2;”, “350” for “400”, “3” for “0.4”, “Flt3 (BPS Bioscience; San Diego, Calif.;” for “VEGFR3 (Millpore Corp.,”, “40225)” for “14-681)”

VEGFR2 = target: T3, VEGFR2 (Homo sapiens, UniProt P35968); assay: VEGFR2 enzyme activity assay (Caliper LC3000 mobility shift); settings: 160 uM ATP (Km), 1 nM VEGFR2, 90 minutes at RT
T3 construct: purchased BPS Bioscience; San Diego, Calif; 40301
Procedure: as §1
as §2, with “VEGFR2” for “VEGFR3”, “(5-FL-EEPLYWSFPAKKK-CONH2;” for “(FITC-KKKKEEIYFFF-CONH2;”, “160” for “400”, “1” for “0.4”, “VEGFR2 (BPS Bioscience; San Diego, Calif.;” for “VEGFR3 (Millpore Corp.,”, “40301)” for “14-681)”

T3 sequence (P35968 20-1356): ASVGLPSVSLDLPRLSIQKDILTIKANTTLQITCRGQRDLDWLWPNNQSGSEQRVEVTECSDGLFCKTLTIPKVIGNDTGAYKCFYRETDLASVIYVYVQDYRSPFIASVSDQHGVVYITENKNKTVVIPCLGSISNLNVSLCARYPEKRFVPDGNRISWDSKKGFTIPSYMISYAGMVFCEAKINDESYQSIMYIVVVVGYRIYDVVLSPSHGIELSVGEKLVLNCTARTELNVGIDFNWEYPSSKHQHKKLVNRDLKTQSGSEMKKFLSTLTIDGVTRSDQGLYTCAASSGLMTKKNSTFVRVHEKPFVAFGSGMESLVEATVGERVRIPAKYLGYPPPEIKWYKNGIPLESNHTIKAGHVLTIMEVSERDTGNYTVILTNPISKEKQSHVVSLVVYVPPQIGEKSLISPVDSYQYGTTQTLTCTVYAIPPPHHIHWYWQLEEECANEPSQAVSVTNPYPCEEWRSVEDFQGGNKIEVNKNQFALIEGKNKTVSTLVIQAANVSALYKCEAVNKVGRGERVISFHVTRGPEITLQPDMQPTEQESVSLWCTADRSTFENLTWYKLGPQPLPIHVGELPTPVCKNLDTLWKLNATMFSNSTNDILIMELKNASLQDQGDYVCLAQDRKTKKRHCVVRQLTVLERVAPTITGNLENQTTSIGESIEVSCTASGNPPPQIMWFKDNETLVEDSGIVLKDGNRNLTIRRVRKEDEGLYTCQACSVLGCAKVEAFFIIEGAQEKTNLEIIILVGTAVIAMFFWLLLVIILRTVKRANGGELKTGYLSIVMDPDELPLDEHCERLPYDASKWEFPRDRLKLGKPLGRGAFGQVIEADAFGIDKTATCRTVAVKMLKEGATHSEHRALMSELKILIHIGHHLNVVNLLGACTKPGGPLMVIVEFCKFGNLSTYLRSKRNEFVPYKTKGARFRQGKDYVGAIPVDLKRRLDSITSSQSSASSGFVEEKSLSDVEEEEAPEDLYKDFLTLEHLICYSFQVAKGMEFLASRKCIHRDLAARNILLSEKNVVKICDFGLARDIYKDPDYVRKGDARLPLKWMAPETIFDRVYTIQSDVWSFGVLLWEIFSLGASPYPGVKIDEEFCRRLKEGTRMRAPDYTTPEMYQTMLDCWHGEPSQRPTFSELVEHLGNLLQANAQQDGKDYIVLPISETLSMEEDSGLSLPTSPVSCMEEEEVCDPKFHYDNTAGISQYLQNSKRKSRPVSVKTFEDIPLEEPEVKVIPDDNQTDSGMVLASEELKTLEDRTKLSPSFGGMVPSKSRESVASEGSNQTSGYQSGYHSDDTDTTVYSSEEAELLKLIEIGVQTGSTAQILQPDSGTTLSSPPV
T1 sequence (P35916 25-1363): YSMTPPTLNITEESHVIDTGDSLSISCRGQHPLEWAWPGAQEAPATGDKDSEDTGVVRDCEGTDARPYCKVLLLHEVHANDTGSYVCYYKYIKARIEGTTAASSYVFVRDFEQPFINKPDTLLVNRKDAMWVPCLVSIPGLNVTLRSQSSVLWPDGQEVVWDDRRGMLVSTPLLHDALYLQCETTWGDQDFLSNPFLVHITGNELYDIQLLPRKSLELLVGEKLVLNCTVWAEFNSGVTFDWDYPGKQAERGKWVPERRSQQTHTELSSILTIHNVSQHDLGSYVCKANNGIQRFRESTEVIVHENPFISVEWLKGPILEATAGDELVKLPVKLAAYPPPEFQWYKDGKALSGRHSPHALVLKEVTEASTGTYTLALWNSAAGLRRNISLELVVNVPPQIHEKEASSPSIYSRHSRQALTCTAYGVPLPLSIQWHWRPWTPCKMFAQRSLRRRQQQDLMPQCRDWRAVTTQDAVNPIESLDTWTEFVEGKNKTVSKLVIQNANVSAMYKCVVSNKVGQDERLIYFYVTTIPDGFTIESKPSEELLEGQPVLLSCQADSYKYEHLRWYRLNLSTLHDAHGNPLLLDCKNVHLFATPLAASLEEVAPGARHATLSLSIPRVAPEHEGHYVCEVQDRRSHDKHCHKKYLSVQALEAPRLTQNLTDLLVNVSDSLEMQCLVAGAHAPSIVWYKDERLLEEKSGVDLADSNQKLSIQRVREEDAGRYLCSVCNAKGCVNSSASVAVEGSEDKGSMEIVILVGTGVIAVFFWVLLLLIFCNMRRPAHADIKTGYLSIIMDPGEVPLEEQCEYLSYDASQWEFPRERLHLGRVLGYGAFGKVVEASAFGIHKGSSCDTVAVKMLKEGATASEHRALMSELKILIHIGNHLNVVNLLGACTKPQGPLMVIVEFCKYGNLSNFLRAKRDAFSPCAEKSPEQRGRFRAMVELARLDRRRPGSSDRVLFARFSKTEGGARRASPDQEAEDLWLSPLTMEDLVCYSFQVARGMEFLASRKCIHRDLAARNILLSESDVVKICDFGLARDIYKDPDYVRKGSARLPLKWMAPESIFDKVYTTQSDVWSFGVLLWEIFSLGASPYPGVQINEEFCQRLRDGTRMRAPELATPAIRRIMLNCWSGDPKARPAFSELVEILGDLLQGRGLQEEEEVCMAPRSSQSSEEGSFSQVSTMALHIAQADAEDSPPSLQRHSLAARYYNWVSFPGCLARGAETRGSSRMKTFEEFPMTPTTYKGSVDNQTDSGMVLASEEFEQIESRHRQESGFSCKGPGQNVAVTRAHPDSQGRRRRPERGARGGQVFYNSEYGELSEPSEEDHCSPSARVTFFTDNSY

Row | SMILES | IC50 (VEGFR3) [nM] | IC50 (Flt3) [nM] | IC50 (VEGFR2) [nM]
1 | COC(=O)c1ccccc1C#Cc1ccnc2[nH]ccc12 [compound 43] | 100 to 1000 | 100 to 1000 | > 1000
2 | C(#Cc1ccnc2[nH]ccc12)c1ccoc1 [compound 44] | 100 to 1000 | > 1000 | > 1000
3 | CC(=O)Nc1ccccc1C#Cc1ccnc2[nH]ccc12 [compound 45] | 100 to 1000 | > 1000 | > 1000
4 | COc1cncc(C#Cc2ccnc3[nH]ccc23)c1 [compound 46] | 100 to 1000 | 100 to 1000 | 100 to 1000
5 | C(#Cc1ccnc2[nH]ccc12)c1cccc(N2CCOCC2)c1 [compound 47] | 100 to 1000 | > 1000 | > 1000
6 | FC(F)(F)c1ccccc1C#Cc1ccnc2[nH]ccc12 [compound 48] | 100 to 1000 | > 1000 | > 1000
7 | COc1ccc(F)cc1C#Cc1ccnc2[nH]ccc12 [compound 49] | 100 to 1000 | > 1000 | > 1000
8 | CC(=O)c1cccc(C#Cc2ccnc3[nH]ccc23)c1 [compound 50] | 100 to 1000 | 100 to 1000 | > 1000
9 | COc1cccc(C#Cc2ccnc3[nH]ccc23)c1 [compound 51] | 100 to 1000 | 100 to 1000 | > 1000
10 | COc1ccccc1C#Cc1ccnc2[nH]ccc12 [compound 52] | 100 to 1000 | > 1000 | > 1000
11 | C(#Cc1ccnc2[nH]ccc12)c1cccc(-c2cc[nH]n2)c1 [compound 53] | 100 to 1000 | > 1000 | > 1000
12 | CCNC(=O)/C=C/c1cccc(C#Cc2ccnc3[nH]ccc23)c1 [compound 54] | 100 to 1000 | > 1000 | > 1000
13 | COC(=O)c1cccc(C#Cc2ccnc3[nH]ccc23)c1 [compound 55] | 100 to 1000 | > 1000 | > 1000
14 | O=C(NCc1ccccc1C#Cc1ccnc2[nH]ccc12)C(F)(F)F [compound 56] | 100 to 1000 | > 1000 | > 1000
15 | Cc1ccncc1C#Cc1ccnc2[nH]ccc12 [compound 57] | 100 to 1000 | 100 to 1000 | 100 to 1000
16 | C(#Cc1ccnc2[nH]ccc12)c1ccccc1-n1cccc1 [compound 58] | 100 to 1000 | > 1000 | > 1000
17 | Fc1cccc(C#Cc2ccnc3[nH]ccc23)c1 [compound 59] | 100 to 1000 | > 1000 | > 1000
18 | C(#Cc1ccnc2[nH]ccc12)c1cccc2[nH]ccc12 [compound 60] | 100 to 1000 | > 1000 | > 1000
19 | N#CCc1ccc(C#Cc2ccnc3[nH]ccc23)cc1 [compound 61] | 100 to 1000 | 100 to 1000 | > 1000
20 | Cc1cccc(C#Cc2ccnc3[nH]ccc23)c1 [compound 62] | 100 to 1000 | > 1000 | > 1000
21 | COc1cccc(C#Cc2ccnc3[nH]ccc23)n1 [compound 63] | 100 to 1000 | > 1000 | > 1000
22 | CCc1ccccc1C#Cc1ccnc2[nH]ccc12 [compound 64] | 100 to 1000 | > 1000 | > 1000
23 | C=Cc1cccc(C#Cc2ccnc3[nH]ccc23)c1 [compound 65] | 100 to 1000 | > 1000 | > 1000

Row | SMILES | IC50 (VEGFR3) [nM] | IC50 (Flt3) [nM] | IC50 (VEGFR2) [nM]
24 | Cn1cncc1C#Cc1ccnc2[nH]ccc12 [compound 66] | 100 to 1000 | 100 to 1000 | 100 to 1000
25 | CC(=O)Nc1ccc(C#Cc2ccnc3[nH]ccc23)cc1 [compound 67] | 100 to 1000 | > 1000 | > 1000
26 | Cc1ccnc(C#Cc2ccnc3[nH]ccc23)c1 [compound 68] | 100 to 1000 | > 1000 | > 1000
27 | Cc1ccccc1C#Cc1ccnc2[nH]ccc12 [compound 69] | 100 to 1000 | > 1000 | > 1000
28 | Cc1ccc(C#Cc2ccnc3[nH]ccc23)cc1 [compound 70] | 100 to 1000 | > 1000 | > 1000
29 | Nc1cccc(C#Cc2cnc3[nH]ccc3c2)c1 [compound 71] | 100 to 1000 | > 1000 | > 1000
30 | C(#Cc1ccnc2[nH]ccc12)c1ccc2c(c1)OCO2 [compound 72] | 100 to 1000 | > 1000 | > 1000
31 | COc1ccc(OC)c(C#Cc2ccnc3[nH]ccc23)c1 [compound 73] | 100 to 1000 | > 1000 | > 1000
32 | COc1cc(C#Cc2ccnc3[nH]ccc23)cc(OC)c1 [compound 74] | > 1000 | > 1000 | > 1000
33 | COc1ccc(CNC(=O)Cc2ccccc2C#Cc2ccnc3[nH]ccc23)cc1 [compound 75] | > 1000 | > 1000 | > 1000
34 | Cc1cccc(C#Cc2ccnc3[nH]ccc23)n1 [compound 76] | > 1000 | > 1000 | > 1000
35 | Cc1cc(C)cc(C#Cc2ccnc3[nH]ccc23)c1 [compound 77] | > 1000 | > 1000 | > 1000
36 | FC(F)(F)Oc1ccccc1C#Cc1ccnc2[nH]ccc12 [compound 78] | > 1000 | > 1000 | > 1000
37 | Nc1ccc(C#Cc2cnc3[nH]ccc3c2)cc1 [compound 79] | > 1000 | 100 to 1000 | > 1000
38 | Fc1ccc(C#Cc2ccnc3[nH]ccc23)cc1 [compound 80] | > 1000 | > 1000 | > 1000
39 | CS(=O)(=O)c1ccc(C#Cc2ccnc3[nH]ccc23)cc1 [compound 81] | > 1000 | > 1000 | > 1000
40 | C(#Cc1ccnc2[nH]ccc12)c1cccnc1 [compound 82] | > 1000 | > 1000 | > 1000
41 | C(#Cc1ccnc2[nH]ccc12)c1cncnc1 [compound 83] | > 1000 | > 1000 | > 1000
42 | COc1cccnc1C#Cc1ccnc2[nH]ccc12 [compound 84] | > 1000 | > 1000 | > 1000
43 | COc1ccc(C#Cc2ccnc3[nH]ccc23)cc1OC [compound 85] | > 1000 | > 1000 | > 1000
44 | C(#Cc1ccnc2[nH]ccc12)c1ccccn1 [compound 86] | > 1000 | > 1000 | > 1000
45 | C(#Cc1ccnc2[nH]ccc12)c1ccncc1 [compound 87] | > 1000 | > 1000 | > 1000
46 | C(#Cc1ccnc2[nH]ccc12)c1ccc2cc[nH]c2c1 [compound 88] | > 1000 | > 1000 | > 1000
